Assay results taken from the NIST ThermoML archive (doi:10.1016/j.jct.2006.08.009).

Experiment: mn = molality of the nth substance listed, in mol/kg
Details: 350 kPa, Liquid; for apparent molar heat capacity: Extra sensitive DSC

OC[C@@H](O)[C@H](O)[C@H](O)[C@@H](O)CO [dulcitol] + O
Details	apparent molar heat capacity [J/K/mol]	mass density [kg/m3]
278.15 K, m1 = 0.0188	374	1001.19
278.15 K, m1 = 0.0418	369	1002.77
278.15 K, m1 = 0.0698	379.2	1004.44
278.15 K, m1 = 0.0986	380.1	1006.47
278.15 K, m1 = 0.119	370.3	1007.99
278.15 K, m1 = 0.1492	379.2	1009.86
283.15 K, m1 = 0.0188	394	1000.99
283.15 K, m1 = 0.0418	389	1002.48
283.15 K, m1 = 0.0698	397.8	1004.2
283.15 K, m1 = 0.0986	398.6	1006.13
283.15 K, m1 = 0.119	388.5	1007.58
283.15 K, m1 = 0.1492	397.5	1009.47
288.15 K, m1 = 0.0188	409	1000.42
288.15 K, m1 = 0.0418	405	1001.85
288.15 K, m1 = 0.0698	412.3	1003.61
288.15 K, m1 = 0.0986	413.3	1005.5
288.15 K, m1 = 0.119	402.7	1006.94
288.15 K, m1 = 0.1492	412	1008.75
293.15 K, m1 = 0.0188	423	–
293.15 K, m1 = 0.0418	418	–
293.15 K, m1 = 0.0698	425.3	–
293.15 K, m1 = 0.0986	426.5	–
293.15 K, m1 = 0.119	416.6	–
293.15 K, m1 = 0.1492	425	–
298.15 K, m1 = 0.0188	434	998.35
298.15 K, m1 = 0.0418	430	999.74
298.15 K, m1 = 0.0698	436.4	1001.5
298.15 K, m1 = 0.0986	437.6	1003.47
298.15 K, m1 = 0.119	428.5	1004.74
298.15 K, m1 = 0.1492	436.1	1006.52
303.15 K, m1 = 0.0188	444	–
303.15 K, m1 = 0.0418	439	–
303.15 K, m1 = 0.0698	446	–
303.15 K, m1 = 0.0986	447.4	–
303.15 K, m1 = 0.119	438.9	–
303.15 K, m1 = 0.1492	445.8	–
308.15 K, m1 = 0.0188	453	995.36
308.15 K, m1 = 0.0418	448	996.65
308.15 K, m1 = 0.0698	454.4	998.44
308.15 K, m1 = 0.0986	456	1000.21
308.15 K, m1 = 0.119	447.9	1001.54
308.15 K, m1 = 0.1492	454.3	1003.38
313.15 K, m1 = 0.0188	461	–
313.15 K, m1 = 0.0418	455.7	–
313.15 K, m1 = 0.0698	462.1	–
313.15 K, m1 = 0.0986	463.5	–
313.15 K, m1 = 0.119	456	–
313.15 K, m1 = 0.1492	461.9	–
318.15 K, m1 = 0.0188	468	991.52
318.15 K, m1 = 0.0418	462.7	992.87
318.15 K, m1 = 0.0698	468.8	994.59
318.15 K, m1 = 0.0986	470.3	996.35
318.15 K, m1 = 0.119	463.3	997.6
318.15 K, m1 = 0.1492	468.7	999.44
323.15 K, m1 = 0.0188	475	–
323.15 K, m1 = 0.0418	469	–
323.15 K, m1 = 0.0698	474.9	–
323.15 K, m1 = 0.0986	476.5	–
323.15 K, m1 = 0.119	469.8	–
323.15 K, m1 = 0.1492	474.8	–
328.15 K, m1 = 0.0188	481	986.98
328.15 K, m1 = 0.0418	474.7	988.34
328.15 K, m1 = 0.0698	480.5	990.01
328.15 K, m1 = 0.0986	482.1	991.76
328.15 K, m1 = 0.119	475.7	993.01
328.15 K, m1 = 0.1492	480.4	994.81
333.15 K, m1 = 0.0188	486	–
333.15 K, m1 = 0.0418	479.8	–
333.15 K, m1 = 0.0698	485.6	–
333.15 K, m1 = 0.0986	487.2	–
333.15 K, m1 = 0.119	481	–
333.15 K, m1 = 0.1492	485.5	–
338.15 K, m1 = 0.0188	491	981.81
338.15 K, m1 = 0.0418	484.5	983.19
338.15 K, m1 = 0.0698	490.1	984.85
338.15 K, m1 = 0.0986	491.8	986.55
338.15 K, m1 = 0.119	486	987.85
338.15 K, m1 = 0.1492	490.1	989.64
343.15 K, m1 = 0.0188	495	–
343.15 K, m1 = 0.0418	488.6	–
343.15 K, m1 = 0.0698	494.2	–
343.15 K, m1 = 0.0986	495.9	–
343.15 K, m1 = 0.119	490.4	–
343.15 K, m1 = 0.1492	494.3	–
348.15 K, m1 = 0.0188	499	976.1
348.15 K, m1 = 0.0418	492.2	977.46
348.15 K, m1 = 0.0698	497.9	979.12
348.15 K, m1 = 0.0986	499.6	980.85
348.15 K, m1 = 0.119	494.4	982.09
348.15 K, m1 = 0.1492	497.9	983.86
353.15 K, m1 = 0.0188	502	–
353.15 K, m1 = 0.0418	495.4	–
353.15 K, m1 = 0.0698	501.2	–
353.15 K, m1 = 0.0986	502.9	–
353.15 K, m1 = 0.119	498.1	–
353.15 K, m1 = 0.1492	501.2	–
358.15 K, m1 = 0.0188	504	969.86
358.15 K, m1 = 0.0418	498.1	971.46
358.15 K, m1 = 0.0698	503.5	972.88
358.15 K, m1 = 0.0986	505.2	974.54
358.15 K, m1 = 0.119	501.3	975.86
358.15 K, m1 = 0.1492	503.6	977.9
363.15 K, m1 = 0.0188	506	–
363.15 K, m1 = 0.0418	499.6	–
363.15 K, m1 = 0.0698	504.4	–
363.15 K, m1 = 0.0986	505.7	–
363.15 K, m1 = 0.119	504.1	–
363.15 K, m1 = 0.1492	504.3	–
368.15 K, m1 = 0.0188	–	963.12
368.15 K, m1 = 0.0418	–	964.48
368.15 K, m1 = 0.0698	–	966.14
368.15 K, m1 = 0.0986	–	967.86
368.15 K, m1 = 0.119	–	969.19
368.15 K, m1 = 0.1492	–	970.84
